In ChEMBL document CHEMBL4145553, “Design, synthesis, and biological evaluation of novel amide and hydrazide based thioether analogs targeting Histone deacteylase (HDAC) enzymes” (Eur J Med Chem, 2018):
Active and inactive are the calls of the source. The rule behind the calls is not given here.

Key:
SN12C [1] = assay: Growth inhibition of human SN12C cells assessed as cell growth at 10^-4 M incubated for 48 hrs by sulforhodamine B assay relative to control; type: functional; conditions: read-out: Activity
MOLT-4 = assay: Growth inhibition of human MOLT4 cells assessed as cell growth at 10^-8 M incubated for 48 hrs by sulforhodamine B assay relative to control; type: functional; conditions: MOLT-4, 48 h, read-out: Activity
NCI-H226 = assay: Growth inhibition of human NCI-H226 cells assessed as cell growth at 10^-8 M incubated for 48 hrs by sulforhodamine B assay relative to control; type: functional; conditions: NCI-H226, 48 h, read-out: Activity
MDA-MB-231 = assay: Growth inhibition of human MDA-MB-231 cells assessed as cell growth at 10^-8 M incubated for 48 hrs by sulforhodamine B assay relative to control; type: functional; conditions: MDA-MB-231, 48 h, read-out: Activity
MDA-MB-435 [2] = assay: Cell cycle arrest in human MDA-MB-435 cells assessed as accumulation at S-phase by propidium iodide staining based flow cytometry (reference value: 26.46%); type: functional
A549 = assay: Growth inhibition of human A549/ATCC cells assessed as cell growth at 10^-4 M incubated for 48 hrs by sulforhodamine B assay relative to control; type: functional; conditions: A549, 48 h, read-out: Activity
MCF7 = assay: Growth inhibition of human MCF7 cells assessed as cell growth at 10^-5 M incubated for 48 hrs by sulforhodamine B assay relative to control; type: functional; conditions: MCF7, 48 h, read-out: Activity
UO-31 [3] = assay: Growth inhibition of human UO31 cells assessed as cell growth at 10^-8 M incubated for 48 hrs by sulforhodamine B assay relative to control; type: functional; conditions: UO-31, 48 h, read-out: Activity
NCI/ADR-RES = assay: Growth inhibition of human NCI/ADR-RES cells assessed as cell growth at 10^-6 M incubated for 48 hrs by sulforhodamine B assay relative to control; type: functional; conditions: read-out: Activity
SN12C [4] = assay: Growth inhibition of human SN12C cells assessed as cell growth at 10^-7 M incubated for 48 hrs by sulforhodamine B assay relative to control; type: functional; conditions: read-out: Activity
UACC-62 = assay: Growth inhibition of human UACC62 cells incubated for 48 hrs by sulforhodamine B assay; type: functional; conditions: UACC-62, 48 h
HL-60 = assay: Cell cycle arrest in human HL60 cells assessed as accumulation at G1-phase by propidium iodide staining based flow cytometry (reference value: 67.27%); type: functional
UO-31 [5] = assay: Growth inhibition of human UO31 cells assessed as cell growth at 10^-7 M incubated for 48 hrs by sulforhodamine B assay relative to control; type: functional; conditions: UO-31, 48 h, read-out: Activity
IGROV-1 = assay: Growth inhibition of human IGROV1 cells assessed as cell growth at 10^-7 M incubated for 48 hrs by sulforhodamine B assay relative to control; type: functional; conditions: IGROV-1, 48 h, read-out: Activity
OVCAR-5 = assay: Growth inhibition of human OVCAR5 cells incubated for 48 hrs by sulforhodamine B assay; type: functional; conditions: OVCAR-5, 48 h
HOP-62 [6] = assay: Growth inhibition of human HOP62 cells assessed as cell growth at 10^-8 M incubated for 48 hrs by sulforhodamine B assay relative to control; type: functional; conditions: HOP-62, 48 h, read-out: Activity
SF-539 = assay: Growth inhibition of human SF539 cells assessed as cell growth at 10^-6 M incubated for 48 hrs by sulforhodamine B assay relative to control; type: functional; conditions: SF-539, 48 h, read-out: Activity
KM12 = assay: Growth inhibition of human KM12 cells incubated for 48 hrs by sulforhodamine B assay; type: functional; conditions: KM12, 48 h
HOP-62 [7] = assay: Growth inhibition of human HOP62 cells assessed as cell growth at 10^-5 M incubated for 48 hrs by sulforhodamine B assay relative to control; type: functional; conditions: HOP-62, 48 h, read-out: Activity
EKVX = assay: Growth inhibition of human EKVX cells incubated for 48 hrs by sulforhodamine B assay; type: functional
HOP-62 [8] = assay: Growth inhibition of human HOP62 cells assessed as cell growth at 10^-7 M incubated for 48 hrs by sulforhodamine B assay relative to control; type: functional; conditions: HOP-62, 48 h, read-out: Activity
SK-MEL-5 = assay: Growth inhibition of human SK-MEL-5 cells assessed as cell growth at 10^-6 M incubated for 48 hrs by sulforhodamine B assay relative to control; type: functional; conditions: SK-MEL-5, 48 h, read-out: Activity
SF-295 = assay: Growth inhibition of human SF295 cells assessed as cell growth at 10^-4 M incubated for 48 hrs by sulforhodamine B assay relative to control; type: functional; conditions: SF-295, 48 h, read-out: Activity
OVCAR-4 = assay: Growth inhibition of human OVCAR4 cells assessed as cell growth at 10^-7 M incubated for 48 hrs by sulforhodamine B assay relative to control; type: functional; conditions: OVCAR-4, 48 h, read-out: Activity
DU-145 = assay: Growth inhibition of human DU145 cells incubated for 48 hrs by sulforhodamine B assay; type: functional; conditions: DU-145, 48 h
HL-60(TB) = assay: Growth inhibition of human HL-60(TB) cells incubated for 48 hrs by sulforhodamine B assay; type: functional; conditions: HL-60, 48 h
SK-OV-3 = assay: Growth inhibition of human SKOV3 cells assessed as cell growth at 10^-8 M incubated for 48 hrs by sulforhodamine B assay relative to control; type: functional; conditions: SK-OV-3, 48 h, read-out: Activity
786-0 = assay: Growth inhibition of human 786-0 cells assessed as cell growth at 10^-4 M incubated for 48 hrs by sulforhodamine B assay relative to control; type: functional; conditions: 786-0, 48 h, read-out: Activity
MDA-MB-435 [9] = assay: Downregulation of HDAC3 mRNA expression in human MDA-MB-435 cells by qRT-PCR method; type: functional, cell-based
MDA-MB-435 [10] = assay: Induction of apoptosis in human MDA-MB-435 cells assessed as late apoptotic cells by propidium iodide/Annexin V staining based flow cytometry (reference value: 0.22%); type: functional
[11] = read-out: LC50 (the source's name)
[12] = read-out: pLC50 (the source's name) (converted)

Compound: CCS/C(Nc1ccccc1)=C(\C#N)C(=O)N/N=C\c1ccc(Cl)cc1Cl
- growth at 100 µM (SN12C [1]): 28%
- growth at 0.01 µM (MOLT-4): 95%
- growth at 0.01 µM (NCI-H226): 90%
- growth at 0.01 µM (MDA-MB-231): 101%
- Activity (MDA-MB-435 [2]): 19.16%
- growth at 100 µM (A549): 18%
- growth at 10 µM (MCF7): 14%
- growth at 0.01 µM (UO-31 [3]): 94%
- growth at 1 µM (NCI/ADR-RES): 87%
- growth at 0.1 µM (SN12C [4]): 92%
- GI50 (UACC-62; read-out: GI50): 2.74 µM
- CC50 (UACC-62; [11]): > 100 µM
- TGI (UACC-62; read-out: TGI): > 100 µM
- GI50 (UACC-62; read-out: pGI50 (converted)): 2.75 µM
- CC50 (UACC-62; [12]): > 100 µM
- TGI (UACC-62; read-out: pTGI): > 100 µM
- Activity (HL-60): 46.38%
- growth at 0.1 µM (UO-31 [5]): 90%
- growth at 0.1 µM (IGROV-1): 98%
- GI50 (OVCAR-5; read-out: GI50): 8.25 µM
- CC50 (OVCAR-5; [11]): > 100 µM
- TGI (OVCAR-5; read-out: TGI): > 100 µM
- GI50 (OVCAR-5; read-out: pGI50 (converted)): 8.32 µM
- CC50 (OVCAR-5; [12]): > 100 µM
- TGI (OVCAR-5; read-out: pTGI): > 100 µM
- growth at 0.01 µM (HOP-62 [6]): 93%
- growth at 1 µM (SF-539): 90%
- GI50 (KM12; read-out: GI50): 4.04 µM
- CC50 (KM12; [11]): > 100 µM
- TGI (KM12; read-out: TGI): > 100 µM
- GI50 (KM12; read-out: pGI50 (converted)): 4.07 µM
- CC50 (KM12; [12]): > 100 µM
- TGI (KM12; read-out: pTGI): > 100 µM
- growth at 10 µM (HOP-62 [7]): 29%
- GI50 (EKVX; read-out: GI50): 5.09 µM
- CC50 (EKVX; [11]): > 100 µM
- TGI (EKVX; read-out: TGI): > 100 µM
- GI50 (EKVX; read-out: pGI50 (converted)): 5.13 µM
- CC50 (EKVX; [12]): > 100 µM
- TGI (EKVX; read-out: pTGI): > 100 µM
- growth at 0.1 µM (HOP-62 [8]): 85%
- growth at 1 µM (SK-MEL-5): 81%
- growth at 100 µM (SF-295): 3%
- growth at 0.1 µM (OVCAR-4): 89%
- GI50 (DU-145; read-out: GI50): 3.57 µM
- CC50 (DU-145; [11]): > 100 µM
- TGI (DU-145; read-out: TGI): > 100 µM
- GI50 (DU-145; read-out: pGI50 (converted)): 3.55 µM
- CC50 (DU-145; [12]): > 100 µM
- TGI (DU-145; read-out: pTGI (converted)): > 100 µM
- GI50 (HL-60(TB); read-out: GI50): 3.2 µM
- CC50 (HL-60(TB); [11]): > 100 µM
- TGI (HL-60(TB); read-out: TGI): > 100 µM
- GI50 (HL-60(TB); read-out: pGI50 (converted)): 3.24 µM
- CC50 (HL-60(TB); [12]): > 100 µM
- TGI (HL-60(TB); read-out: pTGI): > 100 µM
- growth at 0.01 µM (SK-OV-3): 99%
- growth at 100 µM (786-0): 7%
- Activity (MDA-MB-435 [9]): Active
- Activity (MDA-MB-435 [10]): 3.47%

Compound: CCS/C(Nc1ccccc1)=C(\C#N)C(=O)Nc1ccc(OC)cc1
- growth at 100 µM (SN12C [1]): 16%
- growth at 0.01 µM (MOLT-4): 97%
- growth at 0.01 µM (NCI-H226): 95%
- growth at 0.01 µM (MDA-MB-231): 104%
- Activity (MDA-MB-435 [2]): 19.26%
- growth at 100 µM (A549): 15%
- growth at 10 µM (MCF7): 15%
- growth at 0.01 µM (UO-31 [3]): 93%
- growth at 1 µM (NCI/ADR-RES): 73%
- growth at 0.1 µM (SN12C [4]): 97%
- GI50 (UACC-62; read-out: GI50): 2.58 µM
- CC50 (UACC-62; [11]): > 100 µM
- TGI (UACC-62; read-out: TGI): > 100 µM
- GI50 (UACC-62; read-out: pGI50 (converted)): 2.57 µM
- CC50 (UACC-62; [12]): > 100 µM
- TGI (UACC-62; read-out: pTGI): > 100 µM
- Activity (HL-60): 54.11%
- growth at 0.1 µM (UO-31 [5]): 91%
- growth at 0.1 µM (IGROV-1): 101%
- GI50 (OVCAR-5; read-out: GI50): 5.52 µM
- CC50 (OVCAR-5; [11]): > 100 µM
- TGI (OVCAR-5; read-out: TGI): > 100 µM
- GI50 (OVCAR-5; read-out: pGI50 (converted)): 5.5 µM
- CC50 (OVCAR-5; [12]): > 100 µM
- TGI (OVCAR-5; read-out: pTGI): > 100 µM
- growth at 0.01 µM (HOP-62 [6]): 92%
- growth at 1 µM (SF-539): 87%
- GI50 (KM12; read-out: GI50): 2.8 µM
- CC50 (KM12; [11]): > 100 µM
- TGI (KM12; read-out: TGI): > 100 µM
- GI50 (KM12; read-out: pGI50 (converted)): 2.82 µM
- CC50 (KM12; [12]): > 100 µM
- TGI (KM12; read-out: pTGI): > 100 µM
- growth at 10 µM (HOP-62 [7]): 41%
- GI50 (EKVX; read-out: GI50): 4.42 µM
- CC50 (EKVX; [11]): > 100 µM
- TGI (EKVX; read-out: TGI): > 100 µM
- GI50 (EKVX; read-out: pGI50 (converted)): 4.47 µM
- CC50 (EKVX; [12]): > 100 µM
- TGI (EKVX; read-out: pTGI): > 100 µM
- growth at 0.1 µM (HOP-62 [8]): 84%
- growth at 1 µM (SK-MEL-5): 80%
- growth at 100 µM (SF-295): 6%
- growth at 0.1 µM (OVCAR-4): 88%
- GI50 (DU-145; read-out: GI50): 3.48 µM
- CC50 (DU-145; [11]): > 100 µM
- TGI (DU-145; read-out: TGI): 49.8 µM
- GI50 (DU-145; read-out: pGI50 (converted)): 3.47 µM
- CC50 (DU-145; [12]): > 100 µM
- TGI (DU-145; read-out: pTGI (converted)): 50.1 µM
- GI50 (HL-60(TB); read-out: GI50): 2.87 µM
- CC50 (HL-60(TB); [11]): > 100 µM
- TGI (HL-60(TB); read-out: TGI): > 100 µM
- GI50 (HL-60(TB); read-out: pGI50 (converted)): 2.88 µM
- CC50 (HL-60(TB); [12]): > 100 µM
- TGI (HL-60(TB); read-out: pTGI): > 100 µM
- growth at 0.01 µM (SK-OV-3): 103%
- growth at 100 µM (786-0): 6%
- Activity (MDA-MB-435 [9]): Active
- Activity (MDA-MB-435 [10]): 6.38%
